Assay: Phase behavior and solubility of lipid in dense CO2 / threshold pressure for precipitation
Format: physicochemical
Text: Prior to liposome or niosome formation, the phase behavior and solubility of the chosen lipid in dense CO2 were investigated to verify the suitability of the lipid for dense gas processing and, in particular LPLTVs processing.
Knowledge of the threshold pressure for precipitation of lipid from solution is also a key factor for design of the LPLTVs process in order to determine the maximum pressure for the technique so that yield is enhanced and loss of lipid in the expansion chamber minimized. The solid state of 1,2 distearoyl-sn-glycero-3-phosphocholine (DSPC) was maintained when the lipid was exposed to CO2 below 350 bar at 50° C. and 150 bar at 70° C. The solubility of DSPC in pure CO2 at 50° C. and pressures up to 280 bar was considered negligible. […] Use of higher pressures or larger amounts of organic solvent are undesirable, thus the results of the solubility study are in agreement with the literature in concluding that effects arising from poor solubility of lipids in dense CO2 are not easily overcome.
In prior art, at 50° C. and 250 bar, DSPC required the addition of 4.8% v/v ethanol as well as the use of a recycling system for homogeneous dissolution of the lipid in CO2. In the current embodiment, the use of the LPLTVs process eliminates the current limitations of dense gas techniques associated with solubilizing lipids using a supercritical fluid and simply utilizes a dense gas as an aerosolization aid. The threshold pressure for the precipitation of DSPC from a 10 mg/mL ethanol solution at 22° C. was 55 bar.
Precipitation was first observed at 58, 55, and 56 bar for the 5, 10, and 20 mg/mL solutions of DSPC and cholesterol (70:30 lipid to cholesterol weight ratio) in ethanol at 22° C., respectively. Therefore it can be seen that cholesterol had negligible effect on the threshold pressure. […] A faster pressurization rate is preferable for the embodiments LPLTVs process in order to minimize the time requirement for each experiment. During this experiment, noticeable expansion only started to occur after 50 bar was reached. […]

threshold pressure for precipitation (10 mg/mL ethanol solution, 22° C.): 55 bar
effect of ethanol co-solvent on solubility in CO2 (5 mol % ethanol, 50° C., 250 bar): did not significantly improve
solubility in pure CO2 (50° C., pressures up to 280 bar): negligible
SMILES: CCCCCCCCCCCCCCCCCC(=O)OC[C@H](COP(=O)([O-])OCC[N+](C)(C)C)OC(=O)CCCCCCCCCCCCCCCCC [DSPC, 1,2 distearoyl-sn-glycero-3-phosphocholine]
